{"source": "patent US20260116845A1", "about": "“LIPIDS AND COMPOSITIONS THEREOF” (Kernal Biologics, Inc., priority 2023, published 2026)", "key": {"AML12 Cell Line": {"tested_on": "AML12 Cell Line", "experiment": "Transfection of AML12 Cell Line with FLuc mRNA LNPs (ONE-Glo EX luciferase signal)", "type": "cell-based", "settings": "200 ng Fluc mRNA-LNP, 24 hours; Table 4", "method": "(§1) mRNA encapsulated lipid nanoparticles (mRNA LNPs) were formulated using microfluidic mixing with a PNI Ignite instrument. Briefly, lipids (ionizable: structural: helper: PEG) were dissolved in ethanol and mixed with and aqueous solution of mRNA. These mRNA-loaded dispersions were then neutralized via a buffer exchange with a pre-determined buffer overnight. Afterwards, formed LNPs were concentrated with Amicon filter centrifugation, filtered, concentration of mRNA determined through a ribogreen assay, and frozen at −80° C. until use.\n(§2) Cell lines were grown to confluence in T75 flasks using complete media of DMEM-F12 for AML12 and DMEM for both B16F10 and MC38.K. Cells were plated in a white 96 flat-well plate (AML12=20,000 cells/well, B16F10 and MC38.K=5,000 cells/well) with their respected media. Lipid nanoparticles were first diluted to 50 μg/ml using Opti-MEM and pre-incubated with mouse serum for 30 minutes to give an LNP concentration of 8 μg/ml. Cell media was replaced with Opti-MEM and LNPs were added to cells (200 ng of mRNA-LNP), placed back in the incubator, and allowed to transfect for 24 hours. Afterwards, 100 μl of Promega's ONE-Glo™ EX Luciferase Assay System or Promega's CellTiter-Glo® Luminescent Cell Viability Assay was added and mixed in their respective wells, followed by recording luminescence signals on a Thermo Scientific Varioskan LUX multimode microplate reader. The results are shown in FIG. 1, FIG. 2, FIG. 3, FIG. 4, FIG. 5, FIG. 6, FIG. 10, FIG. 11, and FIG. 21."}, "B16F10 Cell Line": {"tested_on": "B16F10 Cell Line", "experiment": "Transfection of B16F10 Cell Line with FLuc mRNA LNPs (ONE-Glo EX luciferase signal)", "type": "cell-based", "settings": "200 ng Fluc mRNA-LNP, 24 hours; Table 4", "method": "as §1, §2"}, "MC38.K Cell Line": {"tested_on": "MC38.K Cell Line", "experiment": "Transfection of MC38.K Cell Line with FLuc mRNA LNPs (ONE-Glo EX luciferase signal)", "type": "cell-based", "settings": "200 ng Fluc mRNA-LNP, 24 hours; Table 4", "method": "as §1, §2"}, "Liver": {"tested_on": "Liver", "experiment": "Ex-vivo luminescence signal from liver after IV Fluc mRNA LNPs in CD1 mice (IVIS)", "settings": "tail vein 1.0 mg/kg Day 0 and Day 2, imaging 18 hours after second dose, Table 4"}}, "data": [{"smiles": "CCCCCCCCC(CCCCCCCCF)C(=O)OCCCCCCCN(CCCCO)CCCCCCCOC(=O)CCCCCCCCC(C)C", "note": "(stereo not drawn) [Compound 69, 7-((7-((10-fluoro-2-octyldecanoyl)oxy)heptyl)(4-hydroxybutyl)amino)heptyl 10-methylundecanoate]", "values": [{"measurement": "Total Luciferin Signal (RLU) In Vitro - AML12", "setting": "AML12 Cell Line", "result": "8.05E+06", "unit": "RLU"}, {"measurement": "Total Luciferin Signal (RLU) In Vitro - B16F10", "setting": "B16F10 Cell Line", "result": "3.62E+06", "unit": "RLU"}, {"measurement": "Total Luciferin Signal (RLU) In Vitro - MC38.K", "setting": "MC38.K Cell Line", "result": "4.67E+07", "unit": "RLU"}, {"measurement": "Total Liver Tissue Luciferin Signal (Photons/s) Ex-vivo - CD1", "setting": "Liver", "result": "4.64E+09", "unit": "Photons/s"}]}, {"smiles": "CCCCCCCCCOC(=O)CCCCCCCN(CCO)CCCCCCCC(=O)OCC(CCCCCC)CCCCCCCCF", "note": "(stereo not drawn) [Compound 72, 10-fluoro-2-hexyldecyl 8-((2-hydroxyethyl)(8-(nonyloxy)-8-oxooctyl)amino)octanoate]", "values": [{"measurement": "Total Luciferin Signal (RLU) In Vitro - AML12", "setting": "AML12 Cell Line", "result": "2.78E+06", "unit": "RLU"}, {"measurement": "Total Luciferin Signal (RLU) In Vitro - B16F10", "setting": "B16F10 Cell Line", "result": "7.23E+05", "unit": "RLU"}, {"measurement": "Total Luciferin Signal (RLU) In Vitro - MC38.K", "setting": "MC38.K Cell Line", "result": "5.53E+06", "unit": "RLU"}, {"measurement": "Total Liver Tissue Luciferin Signal (Photons/s) Ex-vivo - CD1", "setting": "Liver", "result": "3.60E+09", "unit": "Photons/s"}]}, {"smiles": "CCCCCCCCCC(=O)OCCCCCCCN(CCO)CCCCCCCC(=O)OC(CCCCCCCC)CCCCCCCCF", "note": "(stereo not drawn) [Compound 32]", "values": [{"measurement": "Total Luciferin Signal (RLU) In Vitro - AML12", "setting": "AML12 Cell Line", "result": "1.53E+05", "unit": "RLU"}, {"measurement": "Total Luciferin Signal (RLU) In Vitro - B16F10", "setting": "B16F10 Cell Line", "result": "2.09E+05", "unit": "RLU"}, {"measurement": "Total Luciferin Signal (RLU) In Vitro - MC38.K", "setting": "MC38.K Cell Line", "result": "4.43E+05", "unit": "RLU"}, {"measurement": "Total Liver Tissue Luciferin Signal (Photons/s) Ex-vivo - CD1", "setting": "Liver", "result": "3.13E+09", "unit": "Photons/s"}]}, {"smiles": "CCCCCCCCC(CCCCCCCC)C(=O)OCCCCCCCN(CCO)CCCCCC(=O)OCCCCCCCCC(C)C", "note": "[Compound 6]", "values": [{"measurement": "Total Luciferin Signal (RLU) In Vitro - AML12", "setting": "AML12 Cell Line", "result": "8.42E+05", "unit": "RLU"}, {"measurement": "Total Luciferin Signal (RLU) In Vitro - B16F10", "setting": "B16F10 Cell Line", "result": "5.77E+05", "unit": "RLU"}, {"measurement": "Total Luciferin Signal (RLU) In Vitro - MC38.K", "setting": "MC38.K Cell Line", "result": "9.66E+05", "unit": "RLU"}, {"measurement": "Total Liver Tissue Luciferin Signal (Photons/s) Ex-vivo - CD1", "setting": "Liver", "result": "2.10E+09", "unit": "Photons/s"}]}, {"smiles": "CCCCCCCCCCCCN(CCO)CCCCCC(=O)OCCCCCCCCCCC", "note": "[Compound 42]", "values": [{"measurement": "Total Luciferin Signal (RLU) In Vitro - AML12", "setting": "AML12 Cell Line", "result": "2.36E+04", "unit": "RLU"}, {"measurement": "Total Luciferin Signal (RLU) In Vitro - B16F10", "setting": "B16F10 Cell Line", "result": "1.91E+04", "unit": "RLU"}, {"measurement": "Total Luciferin Signal (RLU) In Vitro - MC38.K", "setting": "MC38.K Cell Line", "result": "5.65E+04", "unit": "RLU"}, {"measurement": "Total Liver Tissue Luciferin Signal (Photons/s) In Vitro - CD1", "setting": "Liver", "result": "2.04E+06", "unit": "Photons/s"}]}, {"smiles": "CCCCCCCCCCCOC(=O)CCCCCN(CCO)CCCCCCCC(=O)OC(CCCCCCCC)CCCCCCCF", "note": "(stereo not drawn) [Compound 24]", "values": [{"measurement": "Total Luciferin Signal (RLU) In Vitro - AML12", "setting": "AML12 Cell Line", "result": "5.98E+05", "unit": "RLU"}, {"measurement": "Total Luciferin Signal (RLU) In Vitro - B16F10", "setting": "B16F10 Cell Line", "result": "3.37E+05", "unit": "RLU"}, {"measurement": "Total Luciferin Signal (RLU) In Vitro - MC38.K", "setting": "MC38.K Cell Line", "result": "7.60E+05", "unit": "RLU"}, {"measurement": "Total Liver Tissue Luciferin Signal (Photons/s) Ex-vivo - CD1", "setting": "Liver", "result": "1.04E+10", "unit": "Photons/s"}]}, {"smiles": "CCCCCCCCC(CCCCCCCC)OC(=O)CCCCCCCN(CCO)CCCCCCCOC(=O)CCCCCCCCC(C)C", "note": "[Compound 11]", "values": [{"measurement": "Total Luciferin Signal (RLU) In Vitro - AML12", "setting": "AML12 Cell Line", "result": "4.29E+06", "unit": "RLU"}, {"measurement": "Total Luciferin Signal (RLU) In Vitro - B16F10", "setting": "B16F10 Cell Line", "result": "7.92E+06", "unit": "RLU"}, {"measurement": "Total Luciferin Signal (RLU) In Vitro - MC38.K", "setting": "MC38.K Cell Line", "result": "7.64E+06", "unit": "RLU"}, {"measurement": "Total Liver Tissue Luciferin Signal (Photons/s) Ex-vivo - CD1", "setting": "Liver", "result": "4.88E+09", "unit": "Photons/s"}]}, {"smiles": "CCCCCCCCCOC(=O)C(C)CCCCCCN(CCO)CCCCCCCC(=O)OC(CCCCCCCC)CCCCCCCCF", "note": "(stereo not drawn) [Compound 61, nonyl 8-((8-((1-fluoroheptadecan-9-yl)oxy)-8-oxooctyl)(2-hydroxyethyl)amino)-2-methyloctanoate]", "values": [{"measurement": "Total Luciferin Signal (RLU) In Vitro - AML12", "setting": "AML12 Cell Line", "result": "8.13E+05", "unit": "RLU"}, {"measurement": "Total Luciferin Signal (RLU) In Vitro - B16F10", "setting": "B16F10 Cell Line", "result": "9.46E+05", "unit": "RLU"}, {"measurement": "Total Luciferin Signal (RLU) In Vitro - MC38.K", "setting": "MC38.K Cell Line", "result": "1.11E+07", "unit": "RLU"}, {"measurement": "Total Liver Tissue Luciferin Signal (Photons/s) Ex-vivo - CD1", "setting": "Liver", "result": "1.38E+10", "unit": "Photons/s"}]}, {"smiles": "[2H]C([2H])(OC(=O)CCCN(C)C)C([2H])([2H])N(CCCCCCCC(=O)OCCCCCCCCC)CCCCCCCC(=O)OC(CCCCCCCC)CCCCCCCC", "note": "[Compound 40, heptadecan-9-yl 8-((2-((4-(dimethylamino)butanoyl)oxy)ethyl-1,1,2,2-d4)(8-(nonyloxy)-8-oxooctyl)amino)octanoate]", "values": [{"measurement": "Total Luciferin Signal (RLU) In Vitro - AML12", "setting": "AML12 Cell Line", "result": "4.13E+06", "unit": "RLU"}, {"measurement": "Total Luciferin Signal (RLU) In Vitro - B16F10", "setting": "B16F10 Cell Line", "result": "3.61E+06", "unit": "RLU"}, {"measurement": "Total Luciferin Signal (RLU) In Vitro - MC38.K", "setting": "MC38.K Cell Line", "result": "8.09E+06", "unit": "RLU"}, {"measurement": "Total Liver Tissue Luciferin Signal (Photons/s) Ex-vivo - CD1", "setting": "Liver", "result": "1.12E+08", "unit": "Photons/s"}]}, {"smiles": "CCCCCCCCC(CCCCCCCCF)OC(=O)CCCCCCCN(CCO)CCCCCCCC(=O)OCCCCCCCCC(C)C", "note": "(stereo not drawn) [Compound 10]", "values": [{"measurement": "Total Luciferin Signal (RLU) In Vitro - AML12", "setting": "AML12 Cell Line", "result": "7.51E+05", "unit": "RLU"}, {"measurement": "Total Luciferin Signal (RLU) In Vitro - B16F10", "setting": "B16F10 Cell Line", "result": "4.57E+05", "unit": "RLU"}, {"measurement": "Total Luciferin Signal (RLU) In Vitro - MC38.K", "setting": "MC38.K Cell Line", "result": "6.38E+05", "unit": "RLU"}, {"measurement": "Total Liver Tissue Luciferin Signal (Photons/s) Ex-vivo - CD1", "setting": "Liver", "result": "8.34E+09", "unit": "Photons/s"}]}, {"smiles": "CCCCCCCCC(CCCCCCCF)C(=O)OCCCCCCCN(CCO)CCCCCCCOC(=O)CCCCCCCC=C(C)C", "note": "(stereo not drawn) [Compound 52, 7-((7-((2-(7-fluoroheptyl)decanoyl)oxy)heptyl)(2-hydroxyethyl)amino)heptyl 10-methylundec-9-enoate]", "values": [{"measurement": "Total Luciferin Signal (RLU) In Vitro - AML12", "setting": "AML12 Cell Line", "result": "2.59E+05", "unit": "RLU"}, {"measurement": "Total Luciferin Signal (RLU) In Vitro - B16F10", "setting": "B16F10 Cell Line", "result": "2.53E+05", "unit": "RLU"}, {"measurement": "Total Luciferin Signal (RLU) In Vitro - MC38.K", "setting": "MC38.K Cell Line", "result": "4.31E+05", "unit": "RLU"}, {"measurement": "Total Liver Tissue Luciferin Signal (Photons/s) Ex-vivo - CD1", "setting": "Liver", "result": "7.87E+09", "unit": "Photons/s"}]}, {"smiles": "CCCCCCCCCCCOC(=O)CCCCCN(CCCCCCCC(=O)OC(CCCCCCCC)CCCCCC(C)C)CCOC(=O)CCCN(C)C", "note": "(stereo not drawn) [Compound 19]", "values": [{"measurement": "Total Luciferin Signal (RLU) In Vitro - AML12", "setting": "AML12 Cell Line", "result": "6.91E+05", "unit": "RLU"}, {"measurement": "Total Luciferin Signal (RLU) In Vitro - B16F10", "setting": "B16F10 Cell Line", "result": "1.27E+06", "unit": "RLU"}, {"measurement": "Total Luciferin Signal (RLU) In Vitro - MC38.K", "setting": "MC38.K Cell Line", "result": "1.90E+06", "unit": "RLU"}, {"measurement": "Total Liver Tissue Luciferin Signal (Photons/s) Ex-vivo - CD1", "setting": "Liver", "result": "1.28E+08", "unit": "Photons/s"}]}]}
